Laboratory results published in ChEMBL document CHEMBL1932957, “Synthesis of 2H-benzo[b][1,4]oxazin-3(4H)-one derivatives as platelet aggregation inhibitors” (Bioorg Med Chem Lett, 2012).

Assay: Antiplatelet activity in rabbit platelet rich plasma assessed as inhibition of ADP-induced platelet aggregation treated for 5 mins before ADP challenge measured for 6 mins by microplate reader
Format: functional, cell-free
Settings: Oryctolagus cuniculus

IC50 [µM]	SMILES
3.18	Clc1ccccc1CN1CCc2sccc2C1 [TICLOPIDINE]
15.2	CCCCN1C(=O)COc2cc(CNc3ccccc3)ccc21
6.07	CC(=O)Oc1ccccc1C(=O)O [ASPIRIN]
18.8	CCCN1C(=O)COc2cc(CNc3ccccc3C)ccc21

Continued, compound first:

SMILES	IC50 [µM]
CCCCN1C(=O)COc2cc(CNc3ccccc3C)ccc21	18.8
CCCN1C(=O)COc2cc(CNc3cccc(C)c3)ccc21	13.9
CCCN1C(=O)COc2cc(CNc3ccc(C)cc3)ccc21	14.2
CCCCN1C(=O)COc2cc(CNc3cccc(C)c3)ccc21	12.7
CCCN1C(=O)COc2cc(CNc3ccccc3)ccc21	10.1
